Structures can show the parent of a compound that is named as a salt.
Key:
P-gp (MDR1) = P-gp (MDR1) (Homo sapiens (Human), UniProt P08183); assay: MDR1 LLC-PK1 permeability assay: efflux ratio; type: in vitro ADME; conditions: pig
Description: (§1) Final organic concentration in the assay was 1%.

[1] = target: full-length FLAG-tagged B-Raf(V600E) (Homo sapiens (Human), UniProt P15056, V600E); assay: BRAF V600E enzyme assay (TR-FRET competitive displacement); type: binding; conditions: averaged IC50; TR-FRET tracer displacement, 60 min
Protocol: A competitive displacement assay was configured for B-Raf that monitors the amount of a fluorescently-tagged “tracer” bound to B-Raf via TR-FRET from an anti-tag Eu-labeled antibody also bound to B-Raf. For full-length FLAG-tagged B-Raf(V600E), the assay mixtures consisted of 25 mM K^+HEPES, pH 7.4, 10 mM MgCl2, 0.01% Triton X-100, 1 mM DTT, 2% DMSO (from compound), 50 nM Tracer 1710 (ThermoFisher, PR9176A), 0.5 nM Eu anti-FLAG (M2)-cryptate Ab (Cisbio, 61FG2KLB) and 5 nM full-length, N-terminally FLAG-tagged B-Raf(V600E) (Origene Technologies, TP700031. Compounds were typically diluted in DMSO across an 11-point dosing range created using a 3-fold serial dilution protocol at a top dose of 10 μM. The assay was run in 384-well, polystyrene, low-volume, non-treated, white microtiter plates (Costar 4512) in a final volume of 12 μL. Low control wells included 1 μM of a potent B-Raf inhibitor as a control. The assays were incubated at ambient temperature (typically 22° C.) for 60 min and then read on a PerkinElmer EnVision microplate reader using standard TRF settings (λEx=320 nm, λEm=615 & 665 nm). The ratioed counts (665 nm/615 nm) were converted to percent of control (POC) using the following equation:
[formula] • where: • Xmax Average Uninhibited Controls • Xmin Average Background
A 4-parameter logistic model was the fit to the POC data for each compound. From that fit, the IC50 was estimated and is defined as the concentration of compound at which the best-fit curve crosses 50 POC.

A375 cells = assay: Cellular phospho-ERK inhibition assay in A375 cells; type: cell-based; conditions: Homo sapiens, A-375, A375 cells (head prints A357), 2 hours treatment, read-out: A357 cell IC50
Protocol: A375 and H1755 cells were obtained from the American Type Culture Collection (ATCC, Rockville, MD). A375 cells were maintained in DMEM growth medium containing 10% FBS. H1755 cells were maintained in RPMI growth medium containing 10% FBS.
Cells were harvested according to standard protocols, counted and plated onto flat-bottom, 96-well tissue culture plates (Costar #3599) at 2.5×10^4 cells/well for A375 cells and 1.5×10^4 cells/well for H1755 cells in 100 μL/well of growth medium containing 10% FBS. After an overnight incubation at 37° C. with 5% CO2 cells were treated for 2 hours at 37° C., 5% CO2 with compounds prepared as a 9-point, 1:3.33 fold dilution series with final compound concentrations ranging from 66 pM-10 μM and a constant DMSO concentration of 0.25%. Control wells contained either 0.25% DMSO alone (uninhibited control) or 10 μM binimetinib (complete inhibition control). The levels of phosphorylated ERK are determined using an In Cell Western protocol: following compound incubation, growth medium was discarded, and cells were fixed with 0.4% formaldehyde in PBS for 20 minutes at room temperature. Cells were permeabilized with 100% methanol for 10 minutes at room temperature. Plates were washed with PBS containing 0.05% Tween-20 and blocked for 1 hour at room temperature with LI-COR Blocking Buffer (LI-COR Biosciences; Cat #927-40000). Plates were then incubated for 2 hours at room temperature with 50 μL of a 1:400 dilution of anti-phospho-ERK1/2 (Thr202/Tyr204) (Cell Signaling; Cat #9101) and a 1:1000 dilution of anti-GAPDH (Millipore; Cat #MAB374) in LI-COR blocking buffer containing 0.05% Tween-20. Plates were washed with PBS containing […] Tween-20 then incubated at room temperature for 1 hour with 50 μL of a 1:1000 dilution of anti-rabbit AlexaFluor 680 (Life Technologies; Cat #A21109) and a 1:1000 dilution of anti-mouse IRDye 800CW (LI-COR; Cat #926-32210) in LI-COR blocking buffer containing 0.05% Tween-20. Plates were analyzed by reading on an Odyssey CLx infrared scanner. For each well, the phospho-ERK signal was normalized to the GAPDH signal and converted to POC using the following equation:
[formula] • Where: • Xmax Average Uninhibited Controls • Xmin Average Complete Inhibition Controls IC50 values were then calculated using a 4-parameter fit in XLfit software and are provided in Table A1.

BCRP = BCRP (Homo sapiens (Human), UniProt Q9UNQ0); assay: BCRP MDCKII permeability assay: efflux ratio; type: in vitro ADME; conditions: dog
Protocol: BCRP transfected MDCKII cells were cultured and plated according to manufacturer's recommendations. Assay conditions included with and without the BCRP-specific inhibitor, KO143, at a concentration of 0.3 μM to ascertain the contribution of BCRP to the efflux value of the test compound.
Both positive and negative controls were used to assess functionality of P-gp or BCRP efflux in the assays. […] Final organic concentration in the assay was 1%. All dosing solutions contained 10 μM lucifer yellow to monitor LLC-PK1 or MDCKII cell monolayer integrity.
For the apical to basolateral determination (A to B), 75 μL of the test article in transport buffer were added to the apical side of the individual transwells and 250 μL of basolateral media, without compound or lucifer yellow, were added to each well. For the basolateral to apical determination (B to A), 250 μL of test article in transport buffer were added to each well and 75 μL transport buffer, without compound or lucifer yellow, were added to each transwell. All tests were performed in triplicate, and each compound was tested for both apical to basolateral and basolateral to apical transport. The plates were incubated for 2 hours on a Lab-Line Instruments Titer Orbital Shaker (VWR, West Chester, PA) at 50 rpm and 37° C. with 5% CO2. All culture plates were removed from the incubator and 50 μL of media were removed from the apical and basolateral portion of each well and added to 150 μL of 1 μM labetalol in 2:1 acetonitrile (acetonitrile): H2O, v/v.
These values were accepted when found to be below 2% for apical to basolateral and 5% basolateral to apical flux across the MDR1-transfected LLC-PK1 or BCRP-transfected MDCKII cell monolayers. The plates were sealed and the contents of each well analyzed by LC-MS/MS. The compound concentrations were determined from the ratio of the peak areas of the compound to the internal standard (labetalol) in comparison to the dosing solution.
The LC-MS/MS system was comprised of an HTS-PAL autosampler (Leap Technologies, Carrboro, NC), an HP1200 HPLC (Agilent, Palo Alto, CA), and a MDS Sciex 4000 Q Trap system (Applied Biosystems, Foster City, CA). […] The total run time, including re-equilibration, for a single injection was 1.2 minutes. Mass spectrometric detection of the analytes was accomplished using the ion spray positive mode.
An efflux ratio is calculated from the mean apical to basolateral (A-B) Papp data and basolateral to apical (B-A) Papp data using the following equation: Efflux ratio=Papp(B-A)/Papp(A-B)

[2] = MDR1 LLC-PK1 and BCRP MDCKII permeability assay: permeability coefficient (Papp); type: in vitro ADME
Description: as §1

Chain of P-gp (MDR1) (P08183 whole entry, species assumed): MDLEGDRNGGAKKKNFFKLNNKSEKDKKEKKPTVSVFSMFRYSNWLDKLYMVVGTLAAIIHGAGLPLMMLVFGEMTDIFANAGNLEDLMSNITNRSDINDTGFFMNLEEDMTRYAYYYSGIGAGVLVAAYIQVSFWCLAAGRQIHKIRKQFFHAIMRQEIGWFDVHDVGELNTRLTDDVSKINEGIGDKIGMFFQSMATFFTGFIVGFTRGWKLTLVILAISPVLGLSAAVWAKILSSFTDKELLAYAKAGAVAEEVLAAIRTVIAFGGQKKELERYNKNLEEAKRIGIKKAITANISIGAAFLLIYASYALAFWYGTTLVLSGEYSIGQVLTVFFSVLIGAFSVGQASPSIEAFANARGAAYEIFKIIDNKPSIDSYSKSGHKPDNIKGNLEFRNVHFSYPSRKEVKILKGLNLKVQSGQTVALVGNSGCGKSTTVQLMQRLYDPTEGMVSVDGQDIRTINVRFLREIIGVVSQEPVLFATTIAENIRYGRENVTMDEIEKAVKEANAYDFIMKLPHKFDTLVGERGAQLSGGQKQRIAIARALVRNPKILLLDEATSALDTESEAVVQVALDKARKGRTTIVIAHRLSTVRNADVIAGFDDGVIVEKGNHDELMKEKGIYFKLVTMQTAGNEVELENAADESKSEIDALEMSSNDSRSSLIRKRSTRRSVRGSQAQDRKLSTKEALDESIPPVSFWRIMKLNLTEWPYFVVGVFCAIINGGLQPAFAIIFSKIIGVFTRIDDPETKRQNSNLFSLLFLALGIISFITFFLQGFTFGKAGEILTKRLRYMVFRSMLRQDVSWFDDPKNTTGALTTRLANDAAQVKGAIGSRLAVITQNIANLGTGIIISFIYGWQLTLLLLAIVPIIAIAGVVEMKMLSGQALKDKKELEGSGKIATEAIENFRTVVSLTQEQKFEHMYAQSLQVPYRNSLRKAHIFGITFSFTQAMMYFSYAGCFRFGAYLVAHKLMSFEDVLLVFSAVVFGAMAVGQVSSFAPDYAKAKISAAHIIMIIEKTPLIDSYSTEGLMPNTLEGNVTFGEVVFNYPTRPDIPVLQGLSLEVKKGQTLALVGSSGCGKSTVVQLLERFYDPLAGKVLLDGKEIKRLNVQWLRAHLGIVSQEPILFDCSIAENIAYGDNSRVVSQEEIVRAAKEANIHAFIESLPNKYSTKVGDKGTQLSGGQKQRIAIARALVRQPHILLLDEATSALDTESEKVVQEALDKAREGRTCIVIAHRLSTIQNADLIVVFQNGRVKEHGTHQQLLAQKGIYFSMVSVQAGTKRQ
Chain of BCRP (Q9UNQ0 whole entry): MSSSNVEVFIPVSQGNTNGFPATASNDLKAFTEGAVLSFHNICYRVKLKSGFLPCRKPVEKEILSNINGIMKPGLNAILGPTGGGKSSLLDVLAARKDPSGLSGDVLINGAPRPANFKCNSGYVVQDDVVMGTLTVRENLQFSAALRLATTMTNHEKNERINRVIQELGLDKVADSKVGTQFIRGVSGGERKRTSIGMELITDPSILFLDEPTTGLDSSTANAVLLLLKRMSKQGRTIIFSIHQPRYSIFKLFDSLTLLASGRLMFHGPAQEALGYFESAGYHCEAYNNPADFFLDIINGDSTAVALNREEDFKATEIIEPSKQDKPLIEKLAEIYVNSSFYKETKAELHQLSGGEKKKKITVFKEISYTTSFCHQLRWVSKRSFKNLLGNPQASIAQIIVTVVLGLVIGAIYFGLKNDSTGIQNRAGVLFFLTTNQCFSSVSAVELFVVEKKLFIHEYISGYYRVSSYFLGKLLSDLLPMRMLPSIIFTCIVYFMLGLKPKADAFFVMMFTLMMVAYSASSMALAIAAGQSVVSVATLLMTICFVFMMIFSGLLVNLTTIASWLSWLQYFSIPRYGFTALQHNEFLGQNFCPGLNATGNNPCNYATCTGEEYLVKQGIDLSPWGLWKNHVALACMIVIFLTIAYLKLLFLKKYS
Chain of full-length FLAG-tagged B-Raf(V600E) (P15056 whole entry V600E): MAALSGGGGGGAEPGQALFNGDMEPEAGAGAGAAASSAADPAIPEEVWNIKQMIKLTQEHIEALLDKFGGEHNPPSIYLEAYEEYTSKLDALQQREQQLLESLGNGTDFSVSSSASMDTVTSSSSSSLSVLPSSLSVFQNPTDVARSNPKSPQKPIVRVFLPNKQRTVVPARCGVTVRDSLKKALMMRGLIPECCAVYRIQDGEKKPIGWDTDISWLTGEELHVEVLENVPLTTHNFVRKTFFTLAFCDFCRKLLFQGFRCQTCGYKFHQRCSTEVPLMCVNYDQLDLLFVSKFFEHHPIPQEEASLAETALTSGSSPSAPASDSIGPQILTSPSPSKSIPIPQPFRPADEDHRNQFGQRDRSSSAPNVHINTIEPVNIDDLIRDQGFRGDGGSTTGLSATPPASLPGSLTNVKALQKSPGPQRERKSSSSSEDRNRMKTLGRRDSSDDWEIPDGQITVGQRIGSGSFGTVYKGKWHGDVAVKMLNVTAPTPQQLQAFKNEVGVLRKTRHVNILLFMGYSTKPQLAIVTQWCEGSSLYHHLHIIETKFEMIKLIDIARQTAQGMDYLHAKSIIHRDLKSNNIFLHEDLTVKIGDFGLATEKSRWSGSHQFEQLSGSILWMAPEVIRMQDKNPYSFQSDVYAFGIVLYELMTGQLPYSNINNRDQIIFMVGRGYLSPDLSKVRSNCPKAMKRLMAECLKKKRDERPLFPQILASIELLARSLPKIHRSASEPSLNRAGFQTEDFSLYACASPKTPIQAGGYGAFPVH

Compound	efflux ratio at 2 h, 1 µM (P-gp (MDR1))	IC50 [1]	IC50 (A375 cells)	efflux ratio at 2 h, 1 µM (BCRP)	Papp at 2 h, 1 µM [2]
CO[C@H]1CN(S(=O)(=O)Nc2ccc(F)c(Nc3ccc4ncn(C)c(=O)c4c3C)c2Cl)C[C@@H]1F (relative stereo) [Example 78, (trans)-N-(2-chloro-3-((3,5-dimethyl-4-oxo-3,4-dihydroquinazolin-6-yl)amino)-4-fluorophenyl)-3-fluoro-4-methoxypyrrolidine-1-sulfonamide]	1.5	0.114 µM	0.189 µM	1	340 nm/s
Cc1c(Nc2c(F)ccc(NS(=O)(=O)N(C)C3CCOC3)c2Cl)ccc2ncn(C)c(=O)c12 (centres unmarked) [Example 72, N-(2-chloro-3-((3,5-dimethyl-4-oxo-3,4-dihydroquinazolin-6-yl)amino)-4-fluorophenyl)-(N-methyl-N-(tetrahydrofuran-3-yl))-sulfamide]	–	0.299 µM	0.195 µM	–	–
Cc1c(Nc2c(F)ccc(NS(=O)(=O)N(C)C3CC3)c2Cl)ccc2ncn(C)c(=O)c12 [Example 73, N-(2-chloro-3-((3,5-dimethyl-4-oxo-3,4-dihydroquinazolin-6-yl)amino)-4-fluorophenyl)-(N-cyclopropyl-N-methyl)-sulfamide]	–	0.234 µM	0.121 µM	–	–
Cc1c(Nc2c(F)ccc(NS(=O)(=O)N(C)C3CCC3)c2Cl)ccc2ncn(C)c(=O)c12 [Example 74, N-(2-chloro-3-((3,5-dimethyl-4-oxo-3,4-dihydroquinazolin-6-yl)amino)-4-fluorophenyl)-(N-cyclobutyl-N-methyl)-sulfamide]	–	0.203 µM	0.16 µM	–	–
COC1CCN(S(=O)(=O)Nc2ccc(F)c(Nc3ccc4ncn(C)c(=O)c4c3C)c2Cl)CC1 [Example 75, N-(2-chloro-3-((3,5-dimethyl-4-oxo-3,4-dihydroquinazolin-6-yl)amino)-4-fluorophenyl)-4-methoxypiperidine-1-sulfonamide trifluoroacetate]	–	0.191 µM	0.114 µM	–	–
Cc1c(Nc2c(F)ccc(NS(=O)(=O)N3CCC(C(F)(F)F)C3)c2Cl)ccc2ncn(C)c(=O)c12 (centres unmarked) [Example 76, N-(2-chloro-3-((3,5-dimethyl-4-oxo-3,4-dihydroquinazolin-6-yl)amino)-4-fluorophenyl)-3-(trifluoromethyl)pyrrolidine-1-sulfonamide trifluoroacetate]	–	0.183 µM	0.622 µM	–	–
Cc1c(Nc2c(F)ccc(NS(=O)(=O)N3CCC(O)CC3)c2Cl)ccc2ncn(C)c(=O)c12 [Example 77, N-(2-chloro-3-((3,5-dimethyl-4-oxo-3,4-dihydroquinazolin-6-yl)amino)-4-fluorophenyl)-4-hydroxypiperidine-1-sulfonamide trifluoroacetate]	–	0.177 µM	0.127 µM	–	–
Cc1c(Nc2c(F)ccc(NS(=O)(=O)N3CCC4CC4C3)c2Cl)ccc2ncn(C)c(=O)c12 (centres unmarked) [Example 80]	–	0.103 µM	0.311 µM	0.6	–
Cc1c(Nc2c(F)ccc(NS(=O)(=O)N3CC4CCC3C4)c2Cl)ccc2ncn(C)c(=O)c12 (centres unmarked) [Example 81, N-(2-chloro-3-((3,5-dimethyl-4-oxo-3,4-dihydroquinazolin-6-yl)amino)-4-fluorophenyl)-2-azabicyclo[2.2.1]heptane-2-sulfonamide trifluoroacetate]	–	0.075 µM	0.133 µM	–	–
Cn1cnc2ccc(Nc3c(F)ccc(NS(=O)(=O)N4CC(OC(F)F)C4)c3Cl)c(Cl)c2c1=O [Example 143, N-(2-chloro-3-((5-chloro-3-methyl-4-oxo-3,4-dihydroquinazolin-6-yl)amino)-4-fluorophenyl)-3-(difluoromethoxy)azetidine-1-sulfonamide]	2.6	–	0.045 µM	3.9	160 nm/s
Cc1c(Nc2c(F)ccc(NS(=O)(=O)N3CC4(CCC4)C3)c2Cl)ccc2ncn(C)c(=O)c12 [Example 157, N-(2-chloro-3-((3,5-dimethyl-4-oxo-3,4-dihydroquinazolin-6-yl)amino)-4-fluorophenyl)-2-azaspiro[3.3]heptane-2-sulfonamide trifluoroacetate]	1.2	–	0.886 µM	1.2	230 nm/s

Second part, the compound after the results:

efflux ratio at 2 h, 1 µM (P-gp (MDR1))	IC50 [1]	IC50 (A375 cells)	efflux ratio at 2 h, 1 µM (BCRP)	Papp at 2 h, 1 µM [2]	Compound
5.2	0.01 µM	0.033 µM	–	270 nm/s	Cn1cnc2ccc(Nc3c(F)ccc(NS(=O)(=O)N4CC(OC(F)F)C4)c3Cl)c(F)c2c1=O [Example 144, N-(2-chloro-4-fluoro-3-((5-fluoro-3-methyl-4-oxo-3,4-dihydroquinazolin-6-yl)amino)phenyl)-3-(difluoromethoxy)azetidine-1-sulfonamide]
6.9	0.027 µM	0.031 µM	–	170 nm/s	Cc1c(Nc2c(F)ccc(NS(=O)(=O)N3CC(C#N)C3)c2Cl)ccc2ncn(C)c(=O)c12 [Example 146, N-(2-chloro-3-((3,5-dimethyl-4-oxo-3,4-dihydroquinazolin-6-yl)amino)-4-fluorophenyl)-3-cyanoazetidine-1-sulfonamide trifluoroacetate]
1	0.019 µM	0.067 µM	–	280 nm/s	Cc1c(Nc2c(F)ccc(NS(=O)(=O)N3CC(C)C3)c2Cl)ccc2ncn(C)c(=O)c12 [Example 147, N-(2-chloro-3-((3,5-dimethyl-4-oxo-3,4-dihydroquinazolin-6-yl)amino)-4-fluorophenyl)-3-methylazetidine-1-sulfonamide trifluoroacetate]
–	0.071 µM	0.31 µM	–	–	Cc1c(Nc2c(F)ccc(NS(=O)(=O)N3CCC4CC43)c2Cl)ccc2ncn(C)c(=O)c12 (centres unmarked) [Example 153, N-(2-chloro-3-((3,5-dimethyl-4-oxo-3,4-dihydroquinazolin-6-yl)amino)-4-fluorophenyl)-2-azabicyclo[3.1.0]hexane-2-sulfonamide trifluoroacetate]
–	0.202 µM	0.872 µM	–	–	Cc1c(Nc2c(F)ccc(NS(=O)(=O)N3CC(COC(F)(F)F)C3)c2Cl)ccc2ncn(C)c(=O)c12 [Example 156, N-(2-chloro-3-((3,5-dimethyl-4-oxo-3,4-dihydroquinazolin-6-yl)amino)-4-fluorophenyl)-3-((trifluoromethoxy)methyl)azetidine-1-sulfonamide trifluoroacetate]
–	0.114 µM	1.28 µM	–	–	Cc1c(Nc2c(F)ccc(NS(=O)(=O)N3CC(OC(F)(F)F)C3)c2Cl)ccc2ncn(C)c(=O)c12 [Example 162, N-(2-chloro-3-((3,5-dimethyl-4-oxo-3,4-dihydroquinazolin-6-yl)amino)-4-fluorophenyl)-3-(trifluoromethoxy)azetidine-1-sulfonamide]
–	0.113 µM	1.41 µM	–	–	Cc1c(Nc2c(F)ccc(NS(=O)(=O)N3CC(COCF)C3)c2Cl)ccc2ncn(C)c(=O)c12 [Example 164, N-(2-chloro-3-((3,5-dimethyl-4-oxo-3,4-dihydroquinazolin-6-yl)amino)-4-fluorophenyl)-3-((fluoromethoxy)methyl)azetidine-1-sulfonamide trifluoroacetate]

Source: patent US12303509B2, “Compounds for the treatment of BRAF-associated diseases and disorders” (Pfizer Inc., priority 2020, dated 2025)
